Assay results taken from patent US20070078620A1, “Methods and kits for delivering pharmaceutical agents into the coronary vascular adventitia” (Mercator MedSystems Inc., priority 2002, published 2007).

Columns and labels:
[1] = two injections of 0.5 mL 5% silver nitrate into each iliac artery; hematoxylin-eosin stained sections
Text: The animal was sacrificed according to approved protocol following the last injection. The arteries were removed and placed in 10% formalin without perfusion. 2 mm segments were embedded in paraffin, sectioned, and hematoxylin-eosin stained.

[2] = Distribution of a lipophilic compound (tacrolimus) after periadventitial delivery to coronary arteries, LC/MS of tissue; type: in vivo, swine; settings: for concentration at 48 h: swine, in vivo
Protocol: Distribution of a lipophilic compound (tacrolimus): Eight swine underwent angiography. […] The two remaining arteries served as untreated controls. An untreated heart was used as a negative control. At 48 hours arteries were dissected from the musculature and perivascular fat, cut into 5 mm sections and analyzed by Liquid Chromatography/Mass Spectrometry against tacrolimus calibration standards containing homogenized untreated porcine heart tissue.

O=[N+]([O-])[O-].[Ag+] [Silver Nitrate]
staining: site of delivery and diffusion [1]: delivery outside the external elastic lamina of the vessels and diffusion around the circumference

C=CC[C@@H]1/C=C(\C)C[C@H](C)C[C@H](OC)[C@H]2O[C@@](O)(C(=O)C(=O)N3CCCC[C@H]3C(=O)O[C@H](/C(C)=C/[C@@H]3CC[C@@H](O)[C@H](OC)C3)[C@H](C)[C@@H](O)CC1=O)[C@H](C)C[C@@H]2OC [tacrolimus]
persistence of drug in the artery ([2]; 48 hours after injection, full length of the artery): detectable
subjects with distribution to the entire coronary tree ([2]; periadventitial delivery, 48 hours): 8/8
concentration at 48 h ([2]; mean concentration in the remaining segments): 26 ng/g
concentration at 48 h ([2]; mean concentration within 1 cm of known injection sites): 64 ng/g
concentration at 48 h ([2]; mean level of tacrolimus in confirmed injected arteries): 55 ng/g
concentration at 48 h ([2]; mean level of tacrolimus in uninjected arteries of treated hearts): 27 ng/g
